These results are taken from article PMC6214665 (Bioorganic & medicinal chemistry letters, 2017).

Data set [1] is described as follows: MRC5 cell proliferation counterscreen. To be noted: human, MRC5 cells, MRC5 EC50, cytotoxicity, human cell line. The data set is classed as cell-based. Background: Counterscreens check selectivity or assay interference.
The test system of data set [2] is T. brucei. The experiment in a line: T. brucei cell proliferation assay. The data set is classed as cell-based, Trypanosoma brucei.
In data set [3] the test system is T. cruzi. The data set is described as follows: T. cruzi cell proliferation assay. The data set is classed as cell-based. To be noted: Trypanosoma cruzi, read-out: T. cruzi EC50, mean ± SD; n = 4.

pEC50: −log10 of the molar value.

As usually defined, the pEC50 is −log10 of the EC50, conventionally taken in molar units. For `O=c1nc(-c2ccccc2)c2cc(-c3ccncc3)ccc2[nH]1` [Compound 1], the pEC50 in data set [1] is below 4.30.

For the molecule `Cc1cc(-c2ccc3[nH]c(=O)nc(-c4ccccc4)c3c2)ccn1` [Compound 5], the pEC50 in data set [1] was below 4.30. Besides, the “fold loss of potency in T. brucei assay” value in data set [2] (relative to 1) was below 3 fold.

`O=c1nc(-c2ccccc2)c2cc(-c3cccnc3)ccc2[nH]1` [Compound 6]: the pEC50 in data set [1] was below 4.30.

Molecule `Cc1ccc(-c2ccc3[nH]c(=O)nc(-c4ccccc4)c3c2)cn1` [Compound 7] had a pEC50 in data set [1] below 4.30.

As to `Cc1ccncc1-c1ccc2[nH]c(=O)nc(-c3ccccc3)c2c1` [Compound 8], the pEC50 in data set [3] is above 5.00; in data set [1], below 4.30.

Turning to `Cc1cncc(-c2ccc3[nH]c(=O)nc(-c4ccccc4)c3c2)c1` [Compound 9], the pEC50 in data set [3] was above 5.00; in data set [1] it was below 4.30.

`O=c1nc(-c2ccccc2)c2cc(-c3ccc(C(F)(F)F)nc3)ccc2[nH]1` [Compound 10] gave a pEC50 in data set [1] below 4.30.

`CN(C)c1ccc(-c2ccc3[nH]c(=O)nc(-c4ccccc4)c3c2)cn1` [Compound 11]: in data set [1], the pEC50 is below 4.30.

Take `O=c1nc(-c2ccccc2)c2cc(-c3ccc(N4CCCC4)nc3)ccc2[nH]1` [Compound 12]: the figures for the pEC50 in data set [3] and in data set [1] were above 5.00 and below 4.30, respectively.

Turning to `O=c1nc(-c2ccccc2)c2cc(-c3cnc4ccccc4c3)ccc2[nH]1` [Compound 13], the pEC50 in data set [3] was above 5.00; in data set [1] it was below 4.30.

Consider `O=c1nc(-c2ccccc2)c2cc(-c3ccccc3)ccc2[nH]1` [Compound 14], for which, in data set [1], the pEC50 is below 4.30. Further, the “fold loss of potency in T. brucei assay” value in data set [2] (relative to 1) is ~ 2.5 fold.

As to `O=c1nc(-c2ccccc2)c2cc(-c3ccccc3F)ccc2[nH]1` [Compound 15], the pEC50 was above 5.00 in data set [3] and below 4.30 in data set [1].

In the case of `O=c1nc(-c2ccccc2)c2cc(-c3cccc(F)c3)ccc2[nH]1` [Compound 16], the pEC50 is above 5.00 in data set [3] and below 4.30 in data set [1].

Take `O=c1nc(-c2ccccc2)c2cc(-c3ccc(F)cc3)ccc2[nH]1` [Compound 17]: the pEC50 in data set [3] was above 5.00; in data set [1] it was below 4.30.

Take `N#Cc1ccc(-c2ccc3[nH]c(=O)nc(-c4ccccc4)c3c2)cc1` [Compound 18]: the pEC50 in data set [1] was below 4.30.

For the molecule `CNC(=O)c1cccc(-c2ccc3[nH]c(=O)nc(-c4ccccc4)c3c2)c1` [Compound 19], in data set [1], the pEC50 was below 4.30.

`O=c1nc(-c2ccccc2)c2cc(-c3cccc(N4CCOCC4)c3)ccc2[nH]1` [Compound 20] had a pEC50 in data set [1] below 4.30.

In the case of `O=c1nc(-c2ccccc2)c2cc(-c3ccc(N4CCOCC4)cc3)ccc2[nH]1` [Compound 21], in data set [3], the pEC50 was above 5.00.

Take `O=c1nc(-c2ccccc2)c2cc(-c3cncnc3)ccc2[nH]1` [Compound 22]: the pEC50 in data set [1] was below 4.30.

In data set [1], `Cc1noc(C)c1-c1ccc2[nH]c(=O)nc(-c3ccccc3)c2c1` [Compound 23] showed a pEC50 below 4.30.

Regarding `O=c1nc(-c2ccccc2)c2cc(-c3cc[nH]n3)ccc2[nH]1` [Compound 24], the pEC50 in data set [1] was below 4.30.

As for `O=c1nc(-c2ccccc2)c2cc(-c3cn[nH]c3)ccc2[nH]1` [Compound 25], the pEC50 in data set [3] is above 5.00.

In turn, `Cn1cc(-c2ccc3[nH]c(=O)nc(-c4ccccc4)c3c2)cn1` [Compound 26] gave a pEC50 in data set [1] below 4.30.

As to `Cn1nccc1-c1ccc2[nH]c(=O)nc(-c3ccccc3)c2c1` [Compound 27], the pEC50 in data set [1] is below 4.30.

In data set [1], `O=c1nc(-c2ccccc2)c2ccc(-c3ccncc3)cc2[nH]1` [Compound 28] had a pEC50 below 4.30.

For the molecule `O=c1nc(-c2ccccc2)c2ccc(-c3cccnc3)cc2[nH]1` [Compound 29], the pEC50 in data set [1] is below 4.30.

In turn, `O=c1nc(-c2ccccc2)c2ccc(-c3cncnc3)cc2[nH]1` [Compound 30] had a pEC50 in data set [1] below 4.30.

Molecule `O=c1nc(-c2ccccc2)c2ccc(-c3cccc(N4CCOCC4)c3)cc2[nH]1` [Compound 31] gave a pEC50 in data set [1] below 4.30.

In data set [1], `O=c1nc(-c2ccccc2)c2ccc(-c3ccc(F)cc3)cc2[nH]1` [Compound 32] showed a pEC50 below 4.30.

On to `Cn1ccc(-c2cccc3[nH]c(=O)nc(-c4ccccc4)c23)n1` [Compound 33], for which, in data set [1], the pEC50 is below 4.30.

In data set [1], `N#Cc1ccc(-c2cccc3[nH]c(=O)nc(-c4ccccc4)c23)cc1` [Compound 34] showed a pEC50 below 4.30.

In data set [1], `Cc1ccc2[nH]c(=O)nc(-c3ccccc3)c2c1` [Compound 35] showed a pEC50 below 4.30.

`CN1CCN(c2ccc3[nH]c(=O)nc(-c4ccccc4)c3c2)CC1` [Compound 36] showed a pEC50 in data set [1] below 4.30.

Consider `O=c1nc(-c2ccccc2)c2cc(N3CCNCC3)ccc2[nH]1` [Compound 37], for which, in data set [1], the pEC50 was below 4.60.

Take `O=c1nc(-c2ccccc2)c2cc(N3CCOCC3)ccc2[nH]1` [Compound 38]: in data set [1], the pEC50 was below 4.30.

`Cc1ccccc1-c1nc(=O)[nH]c2ccc(-c3cc[nH]n3)cc12` [Compound 39]: the values for the pEC50 in data set [3] and in data set [1] were above 5.00 and below 4.30, respectively.

`COc1ccccc1-c1nc(=O)[nH]c2ccc(-c3cc[nH]n3)cc12` [Compound 40] had a pEC50 in data set [1] below 4.30.

As for `O=c1nc(C2CCCCC2)c2cc(-c3cc[nH]n3)ccc2[nH]1` [Compound 41], the pEC50 in data set [1] is below 4.30.

Consider `O=c1nc(C2CCC2)c2cc(-c3cc[nH]n3)ccc2[nH]1` [Compound 42], for which the pEC50 in data set [1] was below 4.30. In addition, the “fold loss of potency in T. brucei assay” value in data set [2] (relative to C4-phenyl analog 24) is around 6 fold.
